# Measured values from patent US5622688A, “Macrocyclic chelants, their chelates and uses thereof in the diagnostic field” (Dibra S.p.A., priority 1994, dated 1997).
# Read-outs that look alike come from different tables or passages of the source.
# What was measured:
# [1] = cited from earlier work; for formal charge: background, gadolinium chelate before salification
# Charge = type: physicochemical; settings: Table I, own compound
# mice = test: Acute toxicity LD50 i.v. in mice; type: in vivo
# Source text: Some of the available data relative to Gd chelates of this invention are detailed in Example 4, together with a comparison with the known data of the following commercially available products: DOTAREM®, OMNISCAN®, PROHANCE®. The datum relative to Gd-DTPA-bismethylammide, Gd-DTPA-BMA, which is the active ingredient of OMNISCAN®, is also reported, even if there is remarkable difference in the LD50 values. Such a difference is known to be due to the simultaneous presence in OMNISCAN® of Gd-DTPA-BMA 500 mM, and of the complex of the same ligand with sodium and calcium, Na[CaDTPA-BMA], at a 25 mM concentration. Therefore the comparison of this last datum with those available for the compounds of this invention is more significant as far as determination homogeneity is concerned.
# [2] = Osmolality of aqueous solutions; type: physicochemical
SMILES,formal charge [1],LD50 (mice) i.v. (mice) [mmol/kg],also measured
O=C([O-])CN(CCN(CC(=O)[O-])CC(=O)O)CCN(CC(=O)[O-])CC(=O)O.[Gd+3] [Gd-DTPA],-2,,
"C=C(C(=O)NCCOCCO)N1CCN(CC(=O)[O-])CCN(CC(=O)[O-])CCN(CC(=O)[O-])CC1.[Gd+3] [Example 2, Gadolinium complex of 10-[2-[[2-(2-hydroxyethoxy)ethyl]amino]-1-(methylene)-2-oxoethyl]-1,4,7,10-tetraazacyclododecan-1,4,7-triacetic acid]",,37.6,CHARGE (Charge): non-ionic; OSMOLALITY [2]: 855 mOsm/kg H2 O
"CC(C(=O)NC(CCCO)(CCCO)CCCO)N1CCN(CC(=O)[O-])CCN(CC(=O)[O-])CCN(CC(=O)[O-])CC1.[Gd+3] (stereo not shown) [Example 1, Gadolinium complex of 10-[2-[[1,1-bis(3-hydroxypropyl)-4-hydroxybutyl]amino]-1-methylene-2-oxoethyl]-1,4,7,10-tetraazacyclododecan-1,4,7-triacetic acid]",,23.4,
"CNC(=O)CN(CCN(CCN(CC(=O)[O-])CC(=O)NC)CC(=O)[O-])CC(=O)[O-].[Gd+3] [GdDTPA-BMA, Gd-DTPA-bismethylamide]",,,"CHARGE ([1]; Table I, from the data available on the product brochures): non-ionic"
O=C([O-])CN1CCN(CC(=O)[O-])CCN(CC(=O)O)CCN(CC(=O)[O-])CC1.[Gd+3] [Gd-DOTA],-1,,
